{"source": "the supplement of paper PMC10702517", "key": {"[1]": {"assay": "chemical recovery by SPE of plasma after PDMS sampling; higher = better extraction", "conditions": "pooled human plasma, extraction method: HLB SPE of plasma after PES"}, "[2]": {"assay": "chemical recovery into PDMS from spiked human plasma; higher = better extraction", "conditions": "pooled human plasma, extraction method: PES with PDMS"}, "[3]": {"assay": "chemical recovery from spiked human plasma; higher = better extraction", "conditions": "pooled human plasma"}, "[4]": {"conditions": "extraction method: PES+SPE (3 d PDMS equilibration then HLB SPE)"}, "[5]": {"conditions": "extraction method: SPE only (HLB 96-well)"}, "[6]": {"conditions": "extraction method: SPE only (HLB 96-well), PES comparison experiment"}, "[7]": {"conditions": "extraction method: solvent precipitation (ACN + hexane)"}}, "note": "± gives the standard deviation.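 For chemical recovery by SPE of plasma after PDMS sampling in this document: over 400 spiked chemicals quantified by LC-HRMS or GC-HRMS via internal standard calibration, recovery relative to spike mix added to unspiked plasma extract to correct matrix effects.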"}
{"smiles": "CNC(=O)/C(=N/OC)c1ccccc1COc1cc(C)ccc1C", "note": "[Dimoxystrobin]", "values": [{"measurement": "chemical recovery by SPE of plasma", "setting": "[1]; equilibration time (d): 1", "result": "3.56 ± 3.1", "unit": "%"}, {"measurement": "chemical recovery by SPE of plasma", "setting": "[1]; equilibration time (d): 3", "result": "9.02 ± 0.83", "unit": "%"}, {"measurement": "chemical recovery by SPE of plasma", "setting": "[1]; equilibration time (d): 6", "result": "7.35 ± 0.63", "unit": "%"}, {"measurement": "chemical recovery into PDMS", "setting": "[2]; equilibration time (d): 1", "result": "42.8 ± 4.3", "unit": "%"}, {"measurement": "chemical recovery into PDMS", "setting": "[2]; equilibration time (d): 3", "result": "44.9 ± 3.4", "unit": "%"}, {"measurement": "chemical recovery into PDMS", "setting": "[2]; equilibration time (d): 6", "result": "43.2 ± 1.9", "unit": "%"}, {"measurement": "chemical recovery", "setting": "[3]; [4]", "result": "60.1 ± 20", "unit": "%"}, {"measurement": "chemical recovery", "setting": "[3]; [5]", "result": "35.7 ± 4", "unit": "%"}, {"measurement": "chemical recovery", "setting": "[3]; [6]", "result": "50.3 ± 9.1", "unit": "%"}, {"measurement": "chemical recovery", "setting": "[3]; [7]", "result": "72.7 ± 5.8", "unit": "%"}]}
{"smiles": "CCCCCCCCc1cccc(Nc2ccccc2)c1CCCCCCCC", "note": "[Dioctyldiphenylamine]", "values": [{"measurement": "chemical recovery by SPE of plasma", "setting": "[1]; equilibration time (d): 1", "result": "0.988 ± 0.82", "unit": "%"}, {"measurement": "chemical recovery by SPE of plasma", "setting": "[1]; equilibration time (d): 3", "result": "0.992 ± 0.41", "unit": "%"}, {"measurement": "chemical recovery by SPE of plasma", "setting": "[1]; equilibration time (d): 6", "result": "0.785 ± 0.37", "unit": "%"}, {"measurement": "chemical recovery into PDMS", "setting": "[2]; equilibration time (d): 1", "result": "3.85 ± 3.4", "unit": "%"}, {"measurement": "chemical recovery into PDMS", "setting": "[2]; equilibration time (d): 3", "result": "5.97 ± 3", "unit": "%"}, {"measurement": "chemical recovery into PDMS", "setting": "[2]; equilibration time (d): 6", "result": "6.08 ± 2.5", "unit": "%"}, {"measurement": "chemical recovery", "setting": "[3]; [5]", "result": "7.45 ± 4.7", "unit": "%"}]}
{"smiles": "CN(C)CCOC(c1ccccc1)c1ccccc1", "note": "[Diphenhydramine]", "values": [{"measurement": "chemical recovery by SPE of plasma", "setting": "[1]; equilibration time (d): 1", "result": "0.353 ± 0.014", "unit": "%"}, {"measurement": "chemical recovery by SPE of plasma", "setting": "[1]; equilibration time (d): 3", "result": "0.464 ± 0.19", "unit": "%"}, {"measurement": "chemical recovery by SPE of plasma", "setting": "[1]; equilibration time (d): 6", "result": "0.236 ± 0.039", "unit": "%"}, {"measurement": "chemical recovery into PDMS", "setting": "[2]; equilibration time (d): 1", "result": "0.00464 ± 0.0041", "unit": "%"}, {"measurement": "chemical recovery into PDMS", "setting": "[2]; equilibration time (d): 3", "result": "0.0114 ± 0.013", "unit": "%"}, {"measurement": "chemical recovery", "setting": "[3]; [4]", "result": "0.391 ± 0.13", "unit": "%"}, {"measurement": "chemical recovery", "setting": "[3]; [5]", "result": "44.7 ± 3", "unit": "%"}, {"measurement": "chemical recovery", "setting": "[3]; [6]", "result": "50.3 ± 5.5", "unit": "%"}, {"measurement": "chemical recovery", "setting": "[3]; [7]", "result": "52.4 ± 4.6", "unit": "%"}]}
{"smiles": "c1ccc(Cc2ccccc2)cc1", "note": "[Diphenylmethane]", "values": [{"measurement": "chemical recovery by SPE of plasma", "setting": "[1]; equilibration time (d): 3", "result": "10.1 ± 5.8", "unit": "%"}, {"measurement": "chemical recovery by SPE of plasma", "setting": "[1]; equilibration time (d): 6", "result": "5.98 ± 9.4", "unit": "%"}, {"measurement": "chemical recovery into PDMS", "setting": "[2]; equilibration time (d): 1", "result": "33.8 ± 1.2", "unit": "%"}, {"measurement": "chemical recovery into PDMS", "setting": "[2]; equilibration time (d): 6", "result": "40.4 ± 12", "unit": "%"}, {"measurement": "chemical recovery", "setting": "[3]; [5]", "result": "20.4 ± 5.3", "unit": "%"}]}
{"smiles": "O=S(=O)(c1ccccc1)c1ccccc1", "note": "[Diphenylsulfone]", "values": [{"measurement": "chemical recovery by SPE of plasma", "setting": "[1]; equilibration time (d): 1", "result": "5.48 ± 3.7", "unit": "%"}, {"measurement": "chemical recovery by SPE of plasma", "setting": "[1]; equilibration time (d): 3", "result": "9.14 ± 0.92", "unit": "%"}, {"measurement": "chemical recovery by SPE of plasma", "setting": "[1]; equilibration time (d): 6", "result": "7.53 ± 2.3", "unit": "%"}, {"measurement": "chemical recovery into PDMS", "setting": "[2]; equilibration time (d): 1", "result": "56.9 ± 12", "unit": "%"}, {"measurement": "chemical recovery", "setting": "[3]; [5]", "result": "0.293 ± 0.035", "unit": "%"}, {"measurement": "chemical recovery", "setting": "[3]; [6]", "result": "15.5 ± 1.1", "unit": "%"}, {"measurement": "chemical recovery", "setting": "[3]; [7]", "result": "16.4 ± 3.6", "unit": "%"}]}
{"smiles": "CN(C)C(=O)Nc1ccc(Cl)c(Cl)c1", "note": "[Diuron]", "values": [{"measurement": "chemical recovery by SPE of plasma", "setting": "[1]; equilibration time (d): 1", "result": "8.44 ± 0.83", "unit": "%"}, {"measurement": "chemical recovery by SPE of plasma", "setting": "[1]; equilibration time (d): 3", "result": "7.52 ± 0.91", "unit": "%"}, {"measurement": "chemical recovery by SPE of plasma", "setting": "[1]; equilibration time (d): 6", "result": "4.83 ± 0.33", "unit": "%"}, {"measurement": "chemical recovery into PDMS", "setting": "[2]; equilibration time (d): 1", "result": "32.6 ± 1.8", "unit": "%"}, {"measurement": "chemical recovery into PDMS", "setting": "[2]; equilibration time (d): 3", "result": "36.3 ± 1.6", "unit": "%"}, {"measurement": "chemical recovery into PDMS", "setting": "[2]; equilibration time (d): 6", "result": "37 ± 2", "unit": "%"}, {"measurement": "chemical recovery", "setting": "[3]; [4]", "result": "56.2 ± 5", "unit": "%"}, {"measurement": "chemical recovery", "setting": "[3]; [5]", "result": "48.9 ± 3.2", "unit": "%"}, {"measurement": "chemical recovery", "setting": "[3]; [6]", "result": "55.9 ± 7.4", "unit": "%"}, {"measurement": "chemical recovery", "setting": "[3]; [7]", "result": "74.6 ± 2.9", "unit": "%"}]}
{"smiles": "CC1CN(C2CCCCCCCCCCC2)CC(C)O1", "note": "(centres undefined) [Dodemorph]", "values": [{"measurement": "chemical recovery by SPE of plasma", "setting": "[1]; equilibration time (d): 1", "result": "0.166 ± 0.13", "unit": "%"}, {"measurement": "chemical recovery by SPE of plasma", "setting": "[1]; equilibration time (d): 3", "result": "0.11 ± 0.031", "unit": "%"}, {"measurement": "chemical recovery by SPE of plasma", "setting": "[1]; equilibration time (d): 6", "result": "0.044 ± 0.0048", "unit": "%"}, {"measurement": "chemical recovery into PDMS", "setting": "[2]; equilibration time (d): 1", "result": "1.2 ± 0.66", "unit": "%"}, {"measurement": "chemical recovery into PDMS", "setting": "[2]; equilibration time (d): 3", "result": "1.32 ± 1", "unit": "%"}, {"measurement": "chemical recovery into PDMS", "setting": "[2]; equilibration time (d): 6", "result": "1.41 ± 0.46", "unit": "%"}, {"measurement": "chemical recovery", "setting": "[3]; [5]", "result": "29 ± 0.98", "unit": "%"}, {"measurement": "chemical recovery", "setting": "[3]; [6]", "result": "44.3 ± 4.7", "unit": "%"}, {"measurement": "chemical recovery", "setting": "[3]; [7]", "result": "73 ± 8.6", "unit": "%"}]}
{"smiles": "C[C@]12CCC(=O)C=C1[C@@H]1C[C@@H]1[C@H]1[C@@H]3[C@@H]4C[C@@H]4[C@@]4(CCC(=O)O4)[C@@]3(C)CC[C@@H]12", "note": "[Drospirenone]", "values": [{"measurement": "chemical recovery by SPE of plasma", "setting": "[1]; equilibration time (d): 1", "result": "3.88 ± 0.83", "unit": "%"}, {"measurement": "chemical recovery by SPE of plasma", "setting": "[1]; equilibration time (d): 3", "result": "2.16 ± 0.41", "unit": "%"}, {"measurement": "chemical recovery by SPE of plasma", "setting": "[1]; equilibration time (d): 6", "result": "1.04 ± 0.16", "unit": "%"}, {"measurement": "chemical recovery into PDMS", "setting": "[2]; equilibration time (d): 1", "result": "41.9 ± 2.5", "unit": "%"}, {"measurement": "chemical recovery into PDMS", "setting": "[2]; equilibration time (d): 3", "result": "45.7 ± 3", "unit": "%"}, {"measurement": "chemical recovery into PDMS", "setting": "[2]; equilibration time (d): 6", "result": "44.9 ± 1.4", "unit": "%"}, {"measurement": "chemical recovery", "setting": "[3]; [6]", "result": "42.6 ± 8.3", "unit": "%"}]}
{"smiles": "CC(C)(C)c1ccc(C(=O)CCCN2CCC(OC(c3ccccc3)c3ccccc3)CC2)cc1", "note": "[Ebastin]", "values": [{"measurement": "chemical recovery by SPE of plasma", "setting": "[1]; equilibration time (d): 1", "result": "0.574 ± 0.23", "unit": "%"}, {"measurement": "chemical recovery into PDMS", "setting": "[2]; equilibration time (d): 1", "result": "0.444 ± 0.073", "unit": "%"}, {"measurement": "chemical recovery into PDMS", "setting": "[2]; equilibration time (d): 3", "result": "0.712 ± 0.075", "unit": "%"}, {"measurement": "chemical recovery into PDMS", "setting": "[2]; equilibration time (d): 6", "result": "0.469 ± 0.24", "unit": "%"}, {"measurement": "chemical recovery", "setting": "[3]; [6]", "result": "36.2 ± 9", "unit": "%"}]}
